Source: patent US20240319200A1, “Covalent Molecular Glue Stabilizers and Platform” (The Regents of the University of California, priority 2021, published 2024)

Tests used:
[1] = system: SFN / TAZ phosphopeptide substrate; test: Fluorescence polarization, 14-3-3 SFN with TAZ phosphopeptide substrate; assay type: binding; details: SFN with C38 and C96 mutated to serines
[2] = system: Hippo pathway transcription factor luciferase reporter in MCF7 breast cancer cells; test: Hippo pathway transcription factor luciferase reporter activity; assay type: cell-based
Excerpt: (§1) […]. […] […]. […] […].

[3] = system: ERα transcription factor luciferase reporter in T47D breast cancer cells; test: ERα luciferase reporter activity; assay type: cell-based
Excerpt: as §1

[4] = system: 14-3-3 SFN protein / ERα phosphopeptide substrate; test: Fluorescence polarization, 14-3-3 SFN with ERα phosphopeptide substrate; assay type: binding; details: SFN with C38 and C96 mutated to serines
Experimental: We performed a fluorescence polarization screen with our cysteine-reactive covalent ligand libraries to identify 14-3-3 covalent molecular glues that enhance interactions of SFN with phosphopeptide 14-3-3 interacting sequences ERα. This screen was performed with recombinant pure 14-3-3 SFN protein and a 5-FAM- or rhodamine-conjugated ERα phosphopeptide substrate looking for cysteine-reactive covalent ligands that would stabilize 14-3-3 interactions with the phosphopeptide substrate.

[5] = SFN knockdown, breast cancer cells

C=CC(=O)N1CCC2(CCN(Cc3ccccc3)C2)C1 (stereo not drawn) [EN171]
EN171-mediated stabilization of 14-3-3 interactions with TAZ [1]: significantly attenuated
Inhibition of Hippo pathway transcription factor luciferase reporter activity ([2]; MCF7 breast cancer cells): dose-responsive inhibition
EN171-mediated inhibition of Hippo pathway transcriptional activity [2, 5]: significantly attenuated
EN171-mediated inhibition of ERα transcriptional activity [3, 5]: significantly attenuated
Inhibition of ERα luciferase reporter activity ([3]; T47D breast cancer cells): dose-responsive inhibition
EN171-mediated stabilization of 14-3-3 interactions with ERα [4]: significantly attenuated
